Test results: patent US20060276468A1, “Wood preservative formulations comprising Imazalil” (priority 2005, published 2006)

Tested on: decay organisms
Assay: soil contact veneer exposure test: dip-treated Scots pine sapwood veneers half buried in damp compost, pulled by hand weekly until failure
Details: for estimated expected half life for 1% fungicide plus 1% Imazalil sulfate / Half life for 1% fungicide plus 1% Imazalil sulfate / Half life for fungicide at 2% active ingredient (ai): Example 3; for half life, Low level with 0.8% Imazalil sulfate: 0.8% fungicide plus 0.8% imazalil sulfate, IMS
Source text: The present invention also provides a simple exposure test for evaluating the wood preserving abilities of candidate ingredients or compositions. This exposure test is based on the premise that small dimension timber test specimens tend to fail more quickly than larger ones in soil contact situations.
It is preferable that the thickness of the veneers be greater than 0.1 mm, as veneers of lesser thickness can often be pulled apart by hand without undergoing exposure to decay organisms. Veneers which are thicker than 0.4 may take an excessive amount of time to fail the exposure test. In one embodiment, the thickness of the veneers is about 0.2 mm and the wood is the sapwood of the Scots pine (Pinus sylvestris). Other woods and thicknesses can be used. […] An example of convenient width and length dimensions are 15×50 mm. However, width and length are not critical provided they are kept consistent within a test, although very large or small length or width dimensions may be difficult to handle.
Accordingly, the test of the present invention comprises testing the integrity of a veneer after exposure to a decay-inducing environment. In one embodiment, this environment is damp compost in which decay organisms are present and water is present at just above the water holding capacity of the compost. If desired, other media can be used, and the test can be conducted at water contents which are below, at, or above the water-holding capacity of the media.
In general, the integrity of the veneer is inversely related to the length of exposure to the decay promoting environment. The integrity of the veneer can be tested by applying a force to the veneer and noting whether or not the veneer breaks. Thus, if wood preservative agents are applied to the veneers, these veneers would be expected to withstand longer exposure to the environment without breaking compared to control veneers without breaking.
The force applied to the veneers is preferably a force which pulls the two ends in opposite directions. The force can be applied by the use of an instrument or manually. If there is significant decay the veneer will break, generally near the junction between the portion submerged in the decay accelerating medium and the portion exposed to air. If the force is applied manually, it is preferable that the same individual conduct the test at the various exposure time points.
The veneers were cut such that both late wood and early wood were present in each veneer. The following biocides were tested: imazalil sulfate, dichlorophen, fenarimol, triclosan, and PHMB. To allow the mixing together of the five selected biocides in any combination the biocides were formulated such that they could be mixed together (all the percentages are mass/mass):
Test solutions were prepared and sets of veneers were dip treated such that there were 6 replicate veneers for each treatment under investigation. Additionally six veneers were dip treated in deionised water to act as water controls. […] Plastic containers (approximately 350×220 mm by at least 60 mm high) were part filled with John Innes Number 2 potting compost at a little above its water holding capacity. The veneers for this particular test were placed in six rows within a container such that approximately half the veneer was below the compost and half above. The veneers were placed in the compost such than those given a particular treatment were distributed throughout the container and were not grouped together. The containers, compost and veneers were weighed then incubated at about 30° C. and near 100% relative humidity in an incubator. Each week during the test the assembly was reweighed and deionised water added to bring it back to its original mass. After 3 weeks each veneer was examined in turn. It was held between the fore finger and thumb at each end and pulled to see if it could be broken. If it could be pulled apart a failure was recorded.

[1] = Example 5, solutions in acetone
[2] = Example 10, solutions in IMS (alcohol)
[3] = unnumbered table, additive expectation
[4] = unnumbered table, solutions in IMS

## CCCCn1sc2ccccc2c1=O [BBIT, N-butyl-1,2-benzisothiazolin-3-one]
Example 9, 0.7% BBIT plus 0.2% imazalil sulfate
  half life, With Imazalil sulfate: 7.33 weeks
Example 9, 1.4% BBIT or 0.4% imazalil sulfate alone, formulations which can be mixed together
  half life, No addition: 8.33 weeks
Example 9, additive expectation
  estimated expected half life, With Imazalil sulfate: {6.92 weeks}

## copper naphthenate [Copper (as copper naphthenate)]
Example 6, additive expectation
  estimated expected half life for 1% fungicide plus 1% Imazalil: {10.50 weeks}
Example 6, solutions in xylene
  Half life for fungicide at 2% ai: 14.83 weeks
Example 6, solutions in xylene, 1% copper
  Half life for 1% fungicide plus 1% Imazalil: 11.67 weeks

## CCCCCCCCCCCCCN1CC(C)OC(C)C1 (stereo not drawn) [Tridemorph, 4-alkyl-2,6-dimethylmorpholine]
Additive expectation
  estimated expected half life for 1% fungicide plus 1% Imazalil sulfate: 5.42 weeks
Solutions in IMS (alcohol)
  Half life for 1% fungicide plus 1% Imazalil sulfate: 6.33 weeks
  Half life for fungicide at 2% active ingredient (ai): 4.83 weeks

## COC(=O)N(OC)c1ccccc1COc1ccn(-c2ccc(Cl)cc2)n1 [Pyraclostrobin, methyl N-{2-[1-(4-chlorophenyl)-1H-pyrazol-3-yloxymethyl]phenyl}(N-methoxy)carbamate]
Additive expectation
  estimated expected half life for 1% fungicide plus 1% Imazalil sulfate: 6.09 weeks
Solutions in IMS (alcohol)
  Half life for 1% fungicide plus 1% Imazalil sulfate: 6.50 weeks
  Half life for fungicide at 2% active ingredient (ai): 6.17 weeks

## CCCC1COC(Cn2cncn2)(c2ccc(Cl)cc2Cl)O1 (stereo not drawn) [Propiconazole, 1-[[2-(2,4-dichlorophenyl)-4-propyl-1,3-dioxolan-2-yl]=methyl]-1H-1,2,4-triazole]
Example 5, additive expectation
  estimated expected half life for 1% fungicide plus 1% Imazalil: {6.59 weeks}
[1]
  Half life for 1% fungicide plus 1% Imazalil: 7.33 weeks
  Half life for fungicide at 2% ai: 5.50 weeks
Example 10, 0.8% fungicide plus 0.8% imazalil, IMS (alcohol)
  half life, Low level with 0.8% Imazalil: 6.17 weeks
Example 10, additive expectation
  estimated expected half life, Low level with 0.8% Imazalil: (5.84 weeks)
[2]
  half life, High level (1.6%): 5.50 weeks
  half life, Low level (0.8%): 5.33 weeks

## O=C(Nc1ccccc1)c1ccccc1O [Salicylanilide, 2-hydroxy-N-phenylbenzamide]
Unnumbered table
  half life, Low level with 0.8% Imazalil sulfate: 6.50 weeks
[3]
  expected half life, Low level with 0.8% Imazalil sulfate: {6.34 weeks}
[4]
  half life, High level (1.6%): 5.67 weeks
  half life, Low level (0.8%): 4.83 weeks

## OB(O)O [Boric acid]
Unnumbered table
  half life, Low level with 0.8% Imazalil sulfate: 5.33 weeks
[3]
  expected half life, Low level with 0.8% Imazalil sulfate: {5.57 weeks}
[4]
  half life, High level (1.6%): 4.50 weeks
  half life, Low level (0.8%): 3.83 weeks
